Results on 16 molecules are retold here after ChEMBL document CHEMBL5223095, “Structure activity relationship of N-1 substituted 1,5-naphthyrid-2-one analogs of oxabicyclooctane-linked novel bacterial topoisomerase inhibitors as broad-spectrum antibacterial agents (Part-9)” (Bioorg Med Chem Lett, 2022).

Type in all cases: functional
The test system of one assay is Acinetobacter baumannii. As to the kind of experiment: Antibacterial activity against Acinetobacter baumannii IID876 assessed as bacterial growth inhibition by CLSI protocol agar-based assay.
Another assay has as its system Staphylococcus aureus. As to the kind of experiment: Antibacterial activity against methicillin-resistant Staphylococcus aureus OITII-971 assessed as bacterial growth inhibition by CLSI protocol agar-based assay.
Another assay relates to Pseudomonas aeruginosa. As to the kind of experiment: Antibacterial activity against Pseudomonas aeruginosa PAO1 assessed as bacterial growth inhibition by CLSI protocol agar-based assay.
The next assay deals with Enterococcus faecium. The experiment in a line: Antibacterial activity against Vanomycin-resistant Enterococcus faecium assessed as bacterial growth inhibition by CLSI protocol agar-based assay.
The next assay has as its system Escherichia coli. The experiment in a line: Antibacterial activity against Escherichia coli ATCC 25922 assessed as bacterial growth inhibition by CLSI protocol agar-based assay.
The next assay concerns Streptococcus pneumoniae. As to the kind of experiment: Antibacterial activity against Streptococcus pneumoniae IID553 assessed as bacterial growth inhibition by CLSI protocol agar-based assay.

Converted amounts (≈) assume the structure as drawn. Bounds are passed on as bounds.

The MIC is the lowest concentration found to suppress growth. Turning to `COc1ccc2ncc(F)c(C[C@H](O)C34CCC(NCc5ccc6c(n5)NC(=O)CO6)(CC3)CO4)c2n1`, the MIC was found to be 0.5 µg/mL (≈ 0.981 µM) in the assay on Acinetobacter baumannii; 0.02 µg/mL (≈ 0.0393 µM) in the assay on Staphylococcus aureus; 8 µg/mL (≈ 15.7 µM) with Pseudomonas aeruginosa; 0.5 µg/mL (≈ 0.981 µM) with Enterococcus faecium; 2 µg/mL (≈ 3.93 µM) with Escherichia coli; 0.05 µg/mL (≈ 0.0981 µM) in the assay on Streptococcus pneumoniae.

In the case of `O=c1ccc2ncc(F)c(CCC34CCC(NCc5cnc(-c6cccnc6)s5)(CC3)CO4)c2n1CCO`, the MIC in the assay on Acinetobacter baumannii is > 16 µg/mL; in the assay with Staphylococcus aureus, > 16 µg/mL; in the assay on Pseudomonas aeruginosa, > 32 µg/mL; in the assay on Enterococcus faecium it was > 16 µg/mL; in the assay with Escherichia coli, > 16 µg/mL; in the assay with Streptococcus pneumoniae it was > 16 µg/mL.

For the molecule `O=c1ccc2ncc(F)c(C[C@H](O)C34CCC(NC/C=C/c5cc(F)ccc5F)(CC3)CO4)c2n1CCO`, the MIC with Acinetobacter baumannii is 1 µg/mL (≈ 1.89 µM); in the assay on Staphylococcus aureus, 0.5 µg/mL (≈ 0.944 µM); in the assay with Pseudomonas aeruginosa, 64 µg/mL (≈ 121 µM); in the assay on Enterococcus faecium, 16 µg/mL (≈ 30.2 µM); in the assay with Escherichia coli, 16 µg/mL (≈ 30.2 µM); in the assay with Streptococcus pneumoniae, 0.5 µg/mL (≈ 0.944 µM).

Consider `O=c1ccc2ncc(F)c(CCC34CCC(NCc5cnc(-c6ccncc6)s5)(CC3)CO4)c2n1CCO`, for which the MIC in the assay with Acinetobacter baumannii, in the assay with Staphylococcus aureus, in the assay with Pseudomonas aeruginosa, with Enterococcus faecium, in the assay on Escherichia coli and in the assay with Streptococcus pneumoniae was > 32 µg/mL in each case.

For `O=c1ccc2ncc(F)c(CCC34CCC(NCc5cnc(-c6ncccn6)s5)(CC3)CO4)c2n1CCO`, the MIC is > 16 µg/mL in the assay with Acinetobacter baumannii; 1 µg/mL (≈ 1.86 µM) with Staphylococcus aureus; > 32 µg/mL in the assay on Pseudomonas aeruginosa; > 16 µg/mL with Enterococcus faecium; > 16 µg/mL in the assay with Escherichia coli; 4 µg/mL (≈ 7.45 µM) in the assay on Streptococcus pneumoniae.

With `O=c1ccc2ncc(F)c(CCC34CCC(NCc5cc(-c6cccs6)on5)(CC3)CO4)c2n1CCO`, the MIC with Acinetobacter baumannii is 128 µg/mL (≈ 244 µM); in the assay with Staphylococcus aureus, 4 µg/mL (≈ 7.62 µM); in the assay with Pseudomonas aeruginosa, > 64 µg/mL; in the assay on Enterococcus faecium, 64 µg/mL (≈ 122 µM); in the assay on Escherichia coli, > 128 µg/mL; in the assay with Streptococcus pneumoniae, 4 µg/mL (≈ 7.62 µM).

`O=C1COc2ccc(CNC34CCC([C@@H](O)Cc5c(F)cnc6ccc(=O)n(CCO)c56)(CC3)OC4)nc2N1`: the MIC worked out at 4 µg/mL (≈ 7.41 µM) with Acinetobacter baumannii; 0.031 µg/mL (≈ 0.0575 µM) in the assay with Staphylococcus aureus; 16 µg/mL (≈ 29.7 µM) with Pseudomonas aeruginosa; 2 µg/mL (≈ 3.71 µM) in the assay on Enterococcus faecium; 32 µg/mL (≈ 59.3 µM) with Escherichia coli; 0.125 µg/mL (≈ 0.232 µM) in the assay with Streptococcus pneumoniae.

`O=c1ccc2ncc(F)c(CCC34CCC(NCc5csc(-c6cccs6)n5)(CC3)CO4)c2n1CCO`: the MIC with Acinetobacter baumannii is 32 µg/mL (≈ 59.2 µM); with Staphylococcus aureus, 0.5 µg/mL (≈ 0.925 µM); with Pseudomonas aeruginosa, > 32 µg/mL; in the assay on Enterococcus faecium, 16 µg/mL (≈ 29.6 µM); in the assay on Escherichia coli, 64 µg/mL (≈ 118 µM); with Streptococcus pneumoniae, 1 µg/mL (≈ 1.85 µM).

For the molecule `O=c1ccc2ncc(F)c(CCC34CCC(NC/C=C/c5cc(F)ccc5F)(CC3)CO4)c2n1CCO`, the MIC was determined as 0.125 µg/mL (≈ 0.243 µM) in the assay on Acinetobacter baumannii; 0.031 µg/mL (≈ 0.0604 µM) in the assay with Staphylococcus aureus; 8 µg/mL (≈ 15.6 µM) in the assay on Pseudomonas aeruginosa; 2 µg/mL (≈ 3.89 µM) with Enterococcus faecium; 2 µg/mL (≈ 3.89 µM) in the assay on Escherichia coli; 0.063 µg/mL (≈ 0.123 µM) with Streptococcus pneumoniae.

Consider `O=c1ccc2ncc(F)c(CCC34CCC(NCc5cnc(C6CCCCC6)s5)(CC3)CO4)c2n1CCO`, for which the MIC in the assay with Acinetobacter baumannii is > 32 µg/mL; in the assay on Staphylococcus aureus, > 32 µg/mL; in the assay on Pseudomonas aeruginosa, > 16 µg/mL; with Enterococcus faecium, > 32 µg/mL; with Escherichia coli, > 32 µg/mL; in the assay on Streptococcus pneumoniae it was > 32 µg/mL.

Regarding `O=c1ccc2ncc(F)c(CCC34CCC(NCc5cn(-c6ncccn6)cn5)(CC3)CO4)c2n1CCO`, the MIC in the assay on Acinetobacter baumannii was > 32 µg/mL; with Staphylococcus aureus, > 32 µg/mL; in the assay on Pseudomonas aeruginosa it was > 128 µg/mL; with Enterococcus faecium it was > 32 µg/mL; in the assay on Escherichia coli, > 32 µg/mL; in the assay on Streptococcus pneumoniae it was > 32 µg/mL.

For `O=c1ccc2ncc(F)c(CCC34CCC(NCc5cnc(-c6ccsc6)s5)(CC3)CO4)c2n1CCO`, the MIC with Acinetobacter baumannii was > 32 µg/mL; in the assay on Staphylococcus aureus it was 2 µg/mL (≈ 3.7 µM); with Pseudomonas aeruginosa it was > 32 µg/mL; in the assay with Enterococcus faecium it was > 32 µg/mL; with Escherichia coli, > 32 µg/mL; in the assay with Streptococcus pneumoniae it was 2 µg/mL (≈ 3.7 µM).

With `Cn1cc(-c2ncc(CNC34CCC(CCc5c(F)cnc6ccc(=O)n(CCO)c56)(CC3)OC4)s2)cn1`, the MIC in the assay on Acinetobacter baumannii is > 32 µg/mL; with Staphylococcus aureus, 2 µg/mL (≈ 3.71 µM); in the assay with Pseudomonas aeruginosa, > 32 µg/mL; in the assay on Enterococcus faecium, > 32 µg/mL; in the assay with Escherichia coli, > 32 µg/mL; in the assay with Streptococcus pneumoniae it was 8 µg/mL (≈ 14.9 µM).

`O=c1ccc2ncc(F)c(C[C@H](O)C34CCC(NCc5cc6c(cn5)OCCO6)(CC3)CO4)c2n1CCO`: the MIC in the assay on Acinetobacter baumannii was 64 µg/mL (≈ 122 µM); in the assay on Staphylococcus aureus, 2 µg/mL (≈ 3.8 µM); in the assay on Pseudomonas aeruginosa, > 128 µg/mL; with Enterococcus faecium, 32 µg/mL (≈ 60.8 µM); in the assay with Escherichia coli, 128 µg/mL (≈ 243 µM); in the assay with Streptococcus pneumoniae it was 2 µg/mL (≈ 3.8 µM).

In the case of `O=c1ccc2ncc(F)c(CCC34CCC(NC[C@@H]5C[C@H]5c5cc(F)ccc5F)(CC3)CO4)c2n1CCO`, the MIC was 32 µg/mL (≈ 60.7 µM) with Acinetobacter baumannii; 0.5 µg/mL (≈ 0.948 µM) in the assay on Staphylococcus aureus; > 64 µg/mL with Pseudomonas aeruginosa; 16 µg/mL (≈ 30.3 µM) with Enterococcus faecium; 64 µg/mL (≈ 121 µM) in the assay on Escherichia coli; 1 µg/mL (≈ 1.9 µM) with Streptococcus pneumoniae.

Turning to `O=c1ccc2ncc(F)c(CCC34CCC(NCc5cnc(-c6ccccn6)s5)(CC3)CO4)c2n1CCO`, the MIC with Acinetobacter baumannii is > 32 µg/mL; in the assay with Staphylococcus aureus, > 32 µg/mL; in the assay with Pseudomonas aeruginosa it was > 16 µg/mL; with Enterococcus faecium, > 32 µg/mL; in the assay on Escherichia coli it was > 32 µg/mL; in the assay with Streptococcus pneumoniae it was > 32 µg/mL.
